The values that follow come from patent publication US10815275B2, “Antimicrobial peptoids with improved selectivity and use thereof” (priority 2018, dated 2020).

The test system of data set [1] is S. aureus strain KCTC1621. The format is cell-based. As to conditions: for MBC S. aureus: KCTC1621; for MIC S. aureus: KCTC1621, 18 h. How it is done: (§1) In order to measure antimicrobial activity of the peptoids, Gram-positive S. aureus strain KCTC1621, or Gram-negative E. coli strain ATCC25922 was treated with the peptoids prepared in Preparation Example 1, and minimum inhibitory concentrations were measured. Peptoid NOS. 1 and 2 are already known peptoids and were used for the purpose of making a comparison with novel peptoids in terms of antimicrobial activity.
(§2) Specifically, S. aureus strain KCTC1621 or E. coli strain ATCC25922 was inoculated into Mueller Hinton Broth (MHB2) liquid medium on which cations were adjusted, cultured at a temperature of 37° C. for 18 hours, and then subcultured for 4 hours. Thereafter, the strains were diluted with MHB2 liquid medium containing 0.2% bovine serum albumin and 0.01% acetic acid so that each bacterial number was 2×10^5 colony-forming units (CFU) per 1 mL, and dispensed into 96-well microtiter plates at 100 μL each. A peptoid stock which is 40-fold more concentrated than a concentration to be tested was added to each well at 2.5 μL or lower so that the peptoid stock was 2-fold serially diluted using sterile water. Thereafter, the plates were incubated at a temperature of 37° C. for 18 hours.
(§3) Thereafter, absorbance was measured at a wavelength of 600 nm using a microplate reader (Bio-Rad). The lowest peptoid concentration that completely suppresses growth of microorganisms was measured by a minimum inhibitory concentration (MIC) and a minimum bactericidal concentration (MBC), and the measurement results are shown in Table 5 below. Each of the MIC values was calculated as an average value of numerical values obtained through three independent experiments.

In a further data set the test system is E. coli strain ATCC25922. It is filed as cell-based. Conditions: for MBC E. coli: ATCC25922; for MIC E. coli: ATCC25922, 18 h. The procedure: as §1, §2, §3
For a further data set, the system named is red blood cells. Kind of data set: Hemolytic activity on red blood cells. It is filed as cell-based, mouse. How it is done:
In order to identify, through red blood cell hemolytic activity in mice, whether the peptoids synthesized in Preparation Example 1 are cytotoxic, red blood cells isolated from 10 mL of mouse blood were washed three times with phosphate-buffered saline (PBS, mixed solution of 35 mM phosphate buffer/150 mM NaCl, pH 7.4), and then centrifuged at a centrifugal force of 1,000 ×g for 10 minutes. A 10% (v/v) red blood cell solution diluted with PBS was dispensed into a 96-well microtiter plate at 150 μL each, and then a peptide solution was added at 50 μL each. Thereafter, the 96-well microtiter plate was incubated at a temperature of 37° C. for 1 hour.
The incubated 96-well microtiter plate was centrifuged at a centrifugal force of 1,000×g for 5 minutes. Thereafter, supernatant was taken at 100 μL each and transferred to a new 96-well microtiter plate. Then, absorbance at a wavelength of 540 nm was measured (Table 6).
In this case, a value obtained in a case of being treated with 0.1% (v/v) Triton X-100 was set as 100% hemolysis, and hemolytic activity (degree of cell destruction) of the peptoids was calculated using the following Equation 1. In the Equation 1, A is absorbance of the peptoid solution at a wavelength of 540 nm, B is absorbance of 0.1% Triton X-100 at a wavelength of 540 nm, and C is absorbance of the PBS solution at a wavelength of 540 nm. In this case, Peptoid NO. […] Degree of cell destruction (% hemolysis)=(A−C)/(B−C)[…] [Equation 1]
In Table 6, HD10 means a peptoid concentration which causes 10% hemolysis of red blood cells, and HD50 means a peptoid concentration which causes 50% hemolysis of red blood cells. In addition, Hmax is a hemolysis rate (%) at 200 μM which is the highest peptoid concentration used in the experiment.
Hemolytic activity of Peptoid NOS. 1, 18 to 23, and the peptide Pexiganan was measured in the same manner as in Experimental Example 2.

Another data set deals with E. coli. Nature of the data set: Selectivity analysis, HD10 divided by MIC for E. coli. Conditions: HD10 of Table 6 divided by MIC for E. coli ATCC25922. How it is done:
In order to identify changes in selectivity depending on alteration of degree of folding in helical structure of peptoids, selectivity of each peptoid was calculated using the resultant values measured in the Experimental Examples 1 and 2. The selectivity was obtained by dividing the HD10 value by the minimum inhibitory concentration for E. coli (Table 8).

In brackets after ≈: the same amount, converted by molar mass. Non-standard residues stand in square brackets, D forms with d. Residues, ends and D or L forms follow the SMILES beside them. Nspe = C[C@H](NCC(=O)O)c1ccccc1; Nphe = O=C(O)CNCc1ccccc1; Nlys = NCCCCNCC(=O)O

Turning to `C[C@@H](c1ccccc1)N(CC(N)=O)C(=O)CN(Cc1ccccc1)C(=O)CN(CCCCN)C(=O)CN(Cc1ccccc1)C(=O)CN(Cc1ccccc1)C(=O)CN(CCCCN)C(=O)CN(Cc1ccccc1)C(=O)CN(Cc1ccccc1)C(=O)CN(CCCCN)C(=O)CN(Cc1ccccc1)C(=O)CN(Cc1ccccc1)C(=O)CNCCCCN` [compound 10], in data set [1], the “MBC S. aureus” value is 3.1 µM (≈ 5.34 µg/mL) and the “MIC S. aureus” value was 3.1 µM (≈ 5.34 µg/mL). Moreover, in the data set on E. coli strain ATCC25922, the “MBC E. coli” value worked out at 25 µM (≈ 43 µg/mL) and the “MIC E. coli” value came out at 12.5 µM (≈ 21.5 µg/mL). In addition, in the data set on red blood cells, the HD10 is 103.3 and the HD50 is listed as more than 200.
On to `C[C@@H](c1ccccc1)N(CC(=O)N(CC(=O)N(CCCCN)CC(=O)N(CC(=O)N(CC(N)=O)Cc1ccccc1)Cc1ccccc1)Cc1ccccc1)C(=O)CN(CCCCN)C(=O)CN(Cc1ccccc1)C(=O)CN(Cc1ccccc1)C(=O)CN(CCCCN)C(=O)CN(Cc1ccccc1)C(=O)CN(Cc1ccccc1)C(=O)CNCCCCN` [compound 7] (H-[Nlys][Nphe][Nphe][Nlys][Nphe][Nphe][Nlys][Nspe][Nphe][Nlys][Nphe][Nphe]-NH2), for which, in data set [1], the “MBC S. aureus” value came out at 3.1 µM (≈ 5.34 µg/mL) and the “MIC S. aureus” value was 3.1 µM (≈ 5.34 µg/mL). Also, in the data set on E. coli strain ATCC25922, the “MBC E. coli” value is 25 µM (≈ 43 µg/mL) and the “MIC E. coli” value amounted to 12.5 µM (≈ 21.5 µg/mL). This molecule also had an HD50 with red blood cells of more than 200.
`C[C@@H](c1ccccc1)N(CC(=O)N(CC(=O)N(CCCCN)CC(=O)N(CC(=O)N(CC(=O)N(CCCCN)CC(=O)N(CC(=O)N(CC(N)=O)Cc1ccccc1)Cc1ccccc1)Cc1ccccc1)Cc1ccccc1)Cc1ccccc1)C(=O)CN(CCCCN)C(=O)CN(Cc1ccccc1)C(=O)CN(Cc1ccccc1)C(=O)CNCCCCN` [compound 5] (H-[Nlys][Nphe][Nphe][Nlys][Nspe][Nphe][Nlys][Nphe][Nphe][Nlys][Nphe][Nphe]-NH2): in data set [1], the “MBC S. aureus” value came to 3.1 µM (≈ 5.34 µg/mL) and the “MIC S. aureus” value was determined as 3.1 µM (≈ 5.34 µg/mL). For the same molecule, in the data set on E. coli strain ATCC25922, the “MBC E. coli” value came to 12.5 µM (≈ 21.5 µg/mL) and the “MIC E. coli” value was determined as 12.5 µM (≈ 21.5 µg/mL). In addition, in the data set on red blood cells, the HD50 turned out to be 195.0.
As for `C[C@@H](c1ccccc1)N(CC(N)=O)C(=O)CN(Cc1ccccc1)C(=O)CN(CCCCN)C(=O)CN(Cc1ccccc1)C(=O)CN(Cc1ccccc1)C(=O)CN(CCCCN)C(=O)CN(Cc1ccccc1)C(=O)CN(Cc1ccccc1)C(=O)CN(CCCCN)C(=O)CN(Cc1ccccc1)C(=O)CN(C(=O)CNCCCCN)[C@@H](C)c1ccccc1` [compound 12], the “Selectivity [HD10/MIC (E. coli)]” value in the data set on E. coli turned out to be 6.4. Besides, in data set [1], the “MBC S. aureus” value worked out at 3.1 µM (≈ 5.38 µg/mL) and the “MIC S. aureus” value came out at 3.1 µM (≈ 5.38 µg/mL). In the data set with E. coli strain ATCC25922, the “MBC E. coli” value was determined as 25 µM (≈ 43.4 µg/mL) and the “MIC E. coli” value came to 12.5 µM (≈ 21.7 µg/mL). For the same molecule, in the data set with red blood cells, the HD10 came to 79.7 and the HD50 is more than 200.
As to `C[C@@H](c1ccccc1)N(CC(=O)N(CC(N)=O)Cc1ccccc1)C(=O)CN(CCCCN)C(=O)CN(Cc1ccccc1)C(=O)CN(Cc1ccccc1)C(=O)CN(CCCCN)C(=O)CN(Cc1ccccc1)C(=O)CN(Cc1ccccc1)C(=O)CN(CCCCN)C(=O)CN(Cc1ccccc1)C(=O)CN(Cc1ccccc1)C(=O)CNCCCCN` [compound 9] (H-[Nlys][Nphe][Nphe][Nlys][Nphe][Nphe][Nlys][Nphe][Nphe][Nlys][Nspe][Nphe]-NH2), the “Selectivity [HD10/MIC (E. coli)]” value in the data set with E. coli was 4.3. For the same molecule, in data set [1], the “MBC S. aureus” value was found to be 3.1 µM (≈ 5.34 µg/mL) and the “MIC S. aureus” value worked out at 3.1 µM (≈ 5.34 µg/mL). Moreover, in the data set on E. coli strain ATCC25922, the “MBC E. coli” value was determined as 25 µM (≈ 43 µg/mL) and the “MIC E. coli” value is 12.5 µM (≈ 21.5 µg/mL). In the data set on red blood cells, the HD10 is given as 54.4 and the HD50 is given as more than 200.
Regarding `C[C@@H](c1ccccc1)N(CC(=O)N(CCCCN)CC(=O)N(CC(=O)N(CC(=O)N(CCCCN)CC(=O)N(CC(=O)N(CC(N)=O)Cc1ccccc1)Cc1ccccc1)[C@@H](C)c1ccccc1)[C@@H](C)c1ccccc1)C(=O)CN(C(=O)CN(CCCCN)C(=O)CN(Cc1ccccc1)C(=O)CN(Cc1ccccc1)C(=O)CNCCCCN)[C@@H](C)c1ccccc1` [compound 16] (H-[Nlys][Nphe][Nphe][Nlys][Nspe][Nspe][Nlys][Nspe][Nspe][Nlys][Nphe][Nphe]-NH2), in data set [1], the “MBC S. aureus” value was 3.1 µM (≈ 5.47 µg/mL) and the “MIC S. aureus” value was 1.6 µM (≈ 2.82 µg/mL). For the same molecule, the “MBC E. coli” value against E. coli strain ATCC25922 is 6.3 µM (≈ 11.1 µg/mL). Also, in the data set on red blood cells, the HD10 is listed as 53.0 and the HD50 is more than 200.
As for `C[C@@H](c1ccccc1)N(CC(=O)N(CCCCN)CC(=O)N(CC(=O)N(CC(=O)N(CCCCN)CC(=O)N(CC(=O)N(CC(N)=O)Cc1ccccc1)Cc1ccccc1)Cc1ccccc1)Cc1ccccc1)C(=O)CN(Cc1ccccc1)C(=O)CN(CCCCN)C(=O)CN(Cc1ccccc1)C(=O)CN(Cc1ccccc1)C(=O)CNCCCCN` [compound 6] (H-[Nlys][Nphe][Nphe][Nlys][Nphe][Nspe][Nlys][Nphe][Nphe][Nlys][Nphe][Nphe]-NH2), in data set [1], the “MBC S. aureus” value was found to be 3.1 µM (≈ 5.34 µg/mL) and the “MIC S. aureus” value stood at 3.1 µM (≈ 5.34 µg/mL). In addition, in the data set with E. coli strain ATCC25922, the “MBC E. coli” value worked out at 25 µM (≈ 43 µg/mL) and the “MIC E. coli” value came out at 12.5 µM (≈ 21.5 µg/mL). In the data set with red blood cells, the HD10 is 101.4 and the HD50 is reported as 185.4.
With `C[C@@H](c1ccccc1)N(CC(N)=O)C(=O)CN(C(=O)CN(CCCCN)C(=O)CN(Cc1ccccc1)C(=O)CN(Cc1ccccc1)C(=O)CN(CCCCN)C(=O)CN(Cc1ccccc1)C(=O)CN(Cc1ccccc1)C(=O)CN(CCCCN)C(=O)CN(Cc1ccccc1)C(=O)CN(C(=O)CNCCCCN)[C@@H](C)c1ccccc1)[C@@H](C)c1ccccc1` [compound 14], the “Selectivity [HD10/MIC (E. coli)]” value in the data set on E. coli is listed as 4.3. Besides, in data set [1], the “MBC S. aureus” value came to 1.6 µM (≈ 2.8 µg/mL) and the “MIC S. aureus” value was 1.6 µM (≈ 2.8 µg/mL). Further, in the data set with E. coli strain ATCC25922, the “MBC E. coli” value is 12.5 µM (≈ 21.9 µg/mL) and the “MIC E. coli” value turned out to be 12.5 µM (≈ 21.9 µg/mL). In the data set with red blood cells, this molecule returned an HD10 of 53.9 and an HD50 of 199.6.
Turning to `C[C@@H](c1ccccc1)N(CC(=O)N(CCCCN)CC(=O)N(CC(=O)N(CC(N)=O)Cc1ccccc1)Cc1ccccc1)C(=O)CN(Cc1ccccc1)C(=O)CN(CCCCN)C(=O)CN(Cc1ccccc1)C(=O)CN(Cc1ccccc1)C(=O)CN(CCCCN)C(=O)CN(Cc1ccccc1)C(=O)CN(Cc1ccccc1)C(=O)CNCCCCN` [compound 8] (H-[Nlys][Nphe][Nphe][Nlys][Nphe][Nphe][Nlys][Nphe][Nspe][Nlys][Nphe][Nphe]-NH2), in the data set on E. coli, the “Selectivity [HD10/MIC (E. coli)]” value came out at 7.1. For the same molecule, in data set [1], the “MBC S. aureus” value is 3.1 µM (≈ 5.34 µg/mL) and the “MIC S. aureus” value was found to be 3.1 µM (≈ 5.34 µg/mL). Further, in the data set with E. coli strain ATCC25922, the “MBC E. coli” value is 25 µM (≈ 43 µg/mL) and the “MIC E. coli” value was determined as 12.5 µM (≈ 21.5 µg/mL). Further, in the data set on red blood cells, the HD10 came out at 88.5 and the HD50 was more than 200.
Turning to `C[C@@H](c1ccccc1)N(CC(=O)N(CC(=O)N(CCCCN)CC(=O)N(CC(=O)N(CC(=O)N(CCCCN)CC(=O)N(CC(=O)N(CC(=O)N(CCCCN)CC(=O)N(CC(=O)N(CC(N)=O)Cc1ccccc1)Cc1ccccc1)Cc1ccccc1)Cc1ccccc1)Cc1ccccc1)Cc1ccccc1)Cc1ccccc1)C(=O)CNCCCCN` [compound 3] (H-[Nlys][Nspe][Nphe][Nlys][Nphe][Nphe][Nlys][Nphe][Nphe][Nlys][Nphe][Nphe]-NH2), in the data set with E. coli, the “Selectivity [HD10/MIC (E. coli)]” value is 4.5. In data set [1], the “MBC S. aureus” value is 3.1 µM (≈ 5.34 µg/mL) and the “MIC S. aureus” value turned out to be 3.1 µM (≈ 5.34 µg/mL). In addition, in the data set with E. coli strain ATCC25922, the “MBC E. coli” value is 25 µM (≈ 43 µg/mL) and the “MIC E. coli” value worked out at 25 µM (≈ 43 µg/mL). In the data set on red blood cells, this molecule showed an HD10 of 112.7 and an HD50 of more than 200.
